Laboratory results taken from US20110224221A1, “HEMATOPOIETIC PROTECTION AGAINST IONIZING RADIATION USING SELECTIVE CYCLIN-DEPENDENT KINASE 4/6 INHIBITORS” (priority 2008, published 2011).
“Also recorded” adds a separate entry of the source.

Assays:
tHDF (HS68) cells = test: Clonogenic assay after IR, tHDF (HS68); type: cell-based, human; settings: PD0332991 100 nM, 2BrIC 2 μM, CINK4 6 μM, IR 0-9 Gy
Description: FIG. 6A is a set of micrograph images of crystal violet stained cell cultures of cyclin-dependent kinase 4/6 (CDK4/6)-dependent cells (HS68) plated at different cell/well ratios and treated with either dimethyl sulfoxide (DMSO) as a negative control or with the selective CDK4/6 inhibitor 2-bromo-12,13-dihydro-5H-indolo[2,3-a]pyrrolo[3,4]carbazole-5,6-dione (2BrIC) at 2 μM for 24 hours prior to exposure to ionizing radiation at 0, 1.5, 3, 6, or 9 gray (Gy), as indicated.
Data plotted is the area/cell ratio of PD0332991 treated cells to dimethyl sulfoxide (DMSO) treated cells. Error bars show standard error of the mean.
FIG. 9A is a set of micrograph images of cell cultures of cyclin-dependent kinase 4/6 (CDK4/6)-dependent cells (HS68) plated at different cell/well ratios and pretreated with either dimethyl sulfoxide (DMSO) as a control or with the nonselective CDK4/6 inhibitor trans-4-[[6-ethylamino)-2-[[1-phenylmethyl)-1H-indol-5-yl]amino]-4-pyrimidinyl]amino]]-cyclohexanol (CINK4) at 6 μM for 24 hours prior to exposure to ionizing radiation at 0, 1.5, 3, 6, or 9 gray (Gy), as indicated. The plates were stained with crystal violet to visualize cell colonies.
Clonogenic Assay: The clonogenic assay was performed as previously described (see Franken et al., Nature protocols, 1, 2315-1319 (2006)) with cells plated in a six-well plate at least 6 hours prior to treatment with CDK inhibitor for 24 hours, with 6 Gy IR occurring 12 hours after initiation of CDK inhibitor exposure. Cells were grown for 16 days, washed, fixed, and stained with crystal violet. Plates were then imaged using an Odyssey infrared scanner (Li-Cor Biosciences, Lincoln, Nebr., United States of America) and quantified using the accompanying software.

[1] = tested on: human melanoma cell line WM2664; test: Cell cycle analysis (BrdU incorporation in vitro), WM2664; type: cell-based; settings: for cell cycle effect: WM2664, 24 hours exposure
From the text: (§1) FIG. 3A is a set of graphs showing the dose-response curves for cycle analysis in both cyclin-dependent kinase 4/6 (CKD4/6)-dependent cells (human telomerized human diploid fibroblasts (tHDFs, left-hand column of graphs) and a CDK4/6-dependent human melanoma cell line (WM2664, middle column of graphs)) and in CDK4/6-independent cells (a human retinoblastoma tumor suppressor protein (RB)-null melanoma cell line (A2058), right-hand column of graphs). […] The percentage of cells in the G1 phase is indicated by the data shown in the open triangles, while the percentage of cells in the S phase is shown by the data in the shaded circles and the percentage of cells in the G2/M phase is indicated by the data in the double “x”s.
FIG. 8 is a set of representative cell cycle dot-plots for cyclin-dependent kinase 4/6 (CDK4/6)-dependent (WM2664) human melanoma cells (top two rows) and CDK4/6-independent (A2058) human melanoma cells (bottom two rows) that had been treated with dimethyl sulfoxide (DMSO) as a control or with 300 nM, 1 μM, 3 μM, 10 μM or 30 μM of trans-4-[[6-ethylamino)-2-[[2-phenylmethyl)-1H-indol-5-yl]amino]-4-pyrimidinyl]amino]]-cyclohexanol (CINK4).
(§2) Cell Lines: KPTR1, KPTR4. and KPTR5 were derived from tumor-bearing TyrRAS+Ink4a/Arf−/− by standard procedures and cultured in RPMI+10% fetal bovine serum (FBS). Telomerized HDFs (tHDFs, also known as HS68) were cultured in DMEM+10% FBS with penicillin and streptomycin. The same conditions were used for A2058 and WM2664, human melanoma cell lines with known RB-pathway mutations: A2058 is RB-null, whereas WM2664 lacks p16^INK4a/Arf. See Shields, et al., Cancer Res., 67, 1502-1512 (2007). Cells were irradiated for indicated doses in a Rad Source Inc. (Alpharetta, Ga., United States of America) RS-2000 Biological Irradiator at 160 kV, 25.0 mA, at distance setting 1, with a dose rate of 103 rads/min.
(§3) BrdU Incorporation in vitro: Cells were plated and allowed to adhere overnight or at least 6 hours prior to adding CDK4/6 inhibitor at the indicated concentrations. Cells were grown for 24 hours in the presence of CDK4/6 inhibitor. 15 minutes prior to cell harvesting, 5-Bromo-2-deoxyuridine (BrdU) was added to the media at a final concentration of 10 μM. The cells were then washed, trypsinized, pelleted, fixed, permeabilized, stained, and measured on a flow cytometer as described in manufacturer directions for the BrdU Kit (BD Biosciences Pharmingen, San Diego, Calif., United States of America).
(§4) The proliferation of seven RB-deficient human small cell lung cancer lines was also resistant to the selective CDK4/6 inhibitors.

[2] = tested on: RB-null melanoma line A2058; test: Cell cycle analysis (BrdU incorporation in vitro), A2058; type: cell-based, human; settings: A2058, concentrations between 300 nM and 30 μM
From the text: FIG. 3A is a set of graphs showing the dose-response curves for cycle analysis in both cyclin-dependent kinase 4/6 (CKD4/6)-dependent cells (human telomerized human diploid fibroblasts (tHDFs, left-hand column of graphs) and a CDK4/6-dependent human melanoma cell line (WM2664, middle column of graphs)) and in CDK4/6-independent cells (a human retinoblastoma tumor suppressor protein (RB)-null melanoma cell line (A2058), right-hand column of graphs). […] The percentage of cells in the G1 phase is indicated by the data shown in the open triangles, while the percentage of cells in the S phase is shown by the data in the shaded circles and the percentage of cells in the G2/M phase is indicated by the data in the double “x”s. […]
BrdU Incorporation in vitro: Cells were plated and allowed to adhere overnight or at least 6 hours prior to adding CDK4/6 inhibitor at the indicated concentrations. […] The cells were then washed, trypsinized, pelleted, fixed, permeabilized, stained, and measured on a flow cytometer as described in manufacturer directions for the BrdU Kit (BD Biosciences Pharmingen, San Diego, Calif., United States of America). […]

[3] = tested on: telomerized human diploid fibroblasts (tHDF); test: Cell cycle analysis (BrdU incorporation in vitro), tHDF; type: cell-based; settings: 24 hours exposure
From the text: as §1, §2, §3, §4

CCNc1cc(N[C@H]2CC[C@H](O)CC2)nc(Nc2ccc3c(ccn3Cc3ccccc3)c2)n1 [CINK4]
clonogenic cell survival after IR (area/cell ratio relative to DMSO) (tHDF (HS68) cells): failed to enhance cell survival; also recorded: lack of enhanced cell survival | substantially pure G1 arrest ([1]; WM2664, concentrations between 300 nM and 30 μM): did not induce a substantially pure (i.e. “clean”) G1 arrest | substantially pure G1 arrest [2]: did not induce a substantially pure (i.e. “clean”) G1 arrest

CC[C@H](CO)Nc1nc(NCc2ccccc2)c2ncn(C(C)C)c2n1 [roscovitine, Roscovitine]
cell cycle effect [3]: G2/M block, intra-S arrest, or cell death (sub-GO) | cell cycle effect [1]: G2/M block, intra-S arrest, or cell death (sub-GO)

CN1CC[C@H](c2c(O)cc(O)c3c(=O)cc(-c4ccccc4Cl)oc23)[C@H](O)C1 [flavopiridol]
cell cycle effect [3]: G2/M block, intra-S arrest, or cell death (sub-GO) | cell cycle effect [1]: G2/M block, intra-S arrest, or cell death (sub-GO)

COc1ccc(F)c(F)c1C(=O)c1cnc(NC2CCN(S(C)(=O)=O)CC2)nc1N [Compound 7]
cell cycle effect [3]: G2/M block, intra-S arrest, or cell death (sub-GO) | cell cycle effect [1]: G2/M block, intra-S arrest, or cell death (sub-GO)
